Laboratory results from US11016100B2, “Methods for identifying modulators of ion channels” (X-Body, Inc., priority 2007, dated 2021).

Tested on: parental CHO cells
Settings: parental CHO cells lacking hERG ion channels; potassium-free starvation buffer; FIG. 3
Experimental: This protocol employs potassium free starvation buffer to depolarize cells and thereby open ion channels such that screening ion channel modulators is possible. Colorimetric resonant reflectance biosensor plates were washed with 1×PBS for hydration baseline for 3 to 5 minutes. A PWV was determined for each of the wells. […] The plates were coated with 25.0 μl/well of fibronectin for 2 hrs at room temperature. The plates were blocked for 1 hour at room temperature or overnight at 4° C. by addition of 25.0 μl ovalbumin or BSA in PBS to the wells previously coated with fibronectin.
Starvation buffers were prepared with and without potassium. For 500.0 ml potassium-free starvation buffer the following reagents were used: 25 ml of 3M NaCl for 150 mM NaCl final; 10.0 ml for 20 mM HEPES; 1.0 ml for 2 mM calcium chloride; 0.5 ml for 2 mM magnesium chloride; 1.0 ml for 5 mM D-(+)-glucose; up to 500.0 ml with H2O HPLC. Potassium starvation buffer is prepared the same as above, but with 2 mM KCl added. […]
20.0 μl of potassium-containing starvation buffer was added to each well. […] The average number of cells/well was determined. […]
PWVs are taken for the biosensor plates for 3 to 5 minutes or until a stable read of less than 1-2 pm change/minute is attained. […]

## COc1cc(N)c(Cl)cc1C(=O)NC1CCN(CCCOc2ccc(F)cc2)CC1OC (stereo not shown) [Cisapride monohydrate]
  effect of the inhibitors on cell swelling in parental CHO cells (PWV): little to no effect
